ChEMBL document CHEMBL1151120, “Plant antimutagenic agents, 3. Coumarins” (J Nat Prod, 1988)

What follows are compounds tested on Salmonella typhimurium (assay: Antimutagenic activity in Salmonella Typhimurium […] assessed as inhibition of 2-aminoanthracene-induced mutation at 600 ug/plate after 72 hrs in presence of Ames S-9 fraction).
Format: functional, Salmonella enterica subsp. enterica serovar Typhimurium, T98
In the case of `COc1c2ccoc2cc2oc(=O)ccc12` [BERGAPTEN], the “inhibition (INH)” value is reported as 23%. `O=c1ccc2ccccc2o1` [COUMARIN] was tested, and the “inhibition (INH)” value was 22%. With `COc1c2occc2cc2ccc(=O)oc12` [METHOXSALEN] the “inhibition (INH)” value was 44%. In the case of `COc1ccc2ccc(=O)oc2c1CC=C(C)C` [OSTHOLE], the “inhibition (INH)” value is reported as 68%. With `CC(C)=CCOc1c2occc2cc2ccc(=O)oc12` [PENTOSALEN] the “inhibition (INH)” value was 81%. For `O=c1ccc2cc3ccoc3cc2o1` [PSORALEN], the “inhibition (INH)” value was 60%. `O=c1ccc2ccc(O)cc2o1` [UMBELLIFERONE] was tested, and the “inhibition (INH)” value was 14%.

What follows are compounds tested on Salmonella typhimurium (assay: Antimutagenic activity in Salmonella Typhimurium […] assessed as inhibition of 2-aminoanthracene-induced mutation at 300 ug/plate after 72 hrs in presence of Ames S-9 fraction).
Format: functional, Salmonella enterica subsp. enterica serovar Typhimurium, T98
`COc1c2ccoc2cc2oc(=O)ccc12` [BERGAPTEN] was tested, and the “inhibition (INH)” value was 0%. `O=c1ccc2ccccc2o1` [COUMARIN] was tested, and the “inhibition (INH)” value was 0%. For `COc1c2occc2cc2ccc(=O)oc12` [METHOXSALEN], the “inhibition (INH)” value was 0%. In the case of `COc1ccc2ccc(=O)oc2c1CC=C(C)C` [OSTHOLE], the “inhibition (INH)” value is reported as 0%. `CC(C)=CCOc1c2occc2cc2ccc(=O)oc12` [PENTOSALEN] was tested, and the “inhibition (INH)” value was 0%.

Each compound was assayed on Salmonella typhimurium (assay: Antimutagenic activity in Salmonella Typhimurium […] assessed as inhibition of 2-aminoanthracene-induced mutation at 150 ug/plate after 72 hrs in presence of Ames S-9 fraction).
Format: functional, Salmonella enterica subsp. enterica serovar Typhimurium, T98
`COc1c2ccoc2cc2oc(=O)ccc12` [BERGAPTEN] was tested, and the “inhibition (INH)” value was 0%. With `O=c1ccc2ccccc2o1` [COUMARIN] the “inhibition (INH)” value was 0%. With `COc1c2occc2cc2ccc(=O)oc12` [METHOXSALEN] the “inhibition (INH)” value was 0%. `COc1ccc2ccc(=O)oc2c1CC=C(C)C` [OSTHOLE] was tested, and the “inhibition (INH)” value was 0%. With `CC(C)=CCOc1c2occc2cc2ccc(=O)oc12` [PENTOSALEN] the “inhibition (INH)” value was 0%.

What follows are compounds tested on Salmonella typhimurium (assay: Antimutagenic activity in Salmonella Typhimurium […] assessed as inhibition of acetylaminofluorene-induced mutation at 600 ug/plate after 72 hrs in presence of Ames S-9 fraction).
Format: functional, Salmonella enterica subsp. enterica serovar Typhimurium, T98
In the case of `COc1c2ccoc2cc2oc(=O)ccc12` [BERGAPTEN], the “inhibition (INH)” value is reported as 0%. With `O=c1ccc2ccccc2o1` [COUMARIN] the “inhibition (INH)” value was 36%. For `COc1c2occc2cc2ccc(=O)oc12` [METHOXSALEN], the “inhibition (INH)” value was 39%. `COc1ccc2ccc(=O)oc2c1CC=C(C)C` [OSTHOLE] was tested, and the “inhibition (INH)” value was 74%.

Each compound was assayed on Salmonella typhimurium (assay: Antimutagenic activity in Salmonella Typhimurium […] assessed as inhibition of acetylaminofluorene-induced mutation at 300 ug/plate after 72 hrs in presence of Ames S-9 fraction).
Format: functional, Salmonella enterica subsp. enterica serovar Typhimurium, T98
`COc1c2ccoc2cc2oc(=O)ccc12` [BERGAPTEN] was tested, and the “inhibition (INH)” value was 0%. For `O=c1ccc2ccccc2o1` [COUMARIN], the “inhibition (INH)” value was 28%. With `COc1c2occc2cc2ccc(=O)oc12` [METHOXSALEN] the “inhibition (INH)” value was 21%. In the case of `COc1ccc2ccc(=O)oc2c1CC=C(C)C` [OSTHOLE], the “inhibition (INH)” value is reported as 56%. In the case of `CC(C)=CCOc1c2occc2cc2ccc(=O)oc12` [PENTOSALEN], the “inhibition (INH)” value is reported as 56%.

What follows are compounds tested on Salmonella typhimurium (assay: Antimutagenic activity in Salmonella Typhimurium […] assessed as inhibition of acetylaminofluorene-induced mutation at 150 ug/plate after 72 hrs in presence of Ames S-9 fraction).
Format: functional, Salmonella enterica subsp. enterica serovar Typhimurium, T98
With `COc1c2ccoc2cc2oc(=O)ccc12` [BERGAPTEN] the “inhibition (INH)” value was 0%. For `O=c1ccc2ccccc2o1` [COUMARIN], the “inhibition (INH)” value was 5%. `COc1c2occc2cc2ccc(=O)oc12` [METHOXSALEN] was tested, and the “inhibition (INH)” value was 0%. In the case of `COc1ccc2ccc(=O)oc2c1CC=C(C)C` [OSTHOLE], the “inhibition (INH)” value is reported as 51%. With `CC(C)=CCOc1c2occc2cc2ccc(=O)oc12` [PENTOSALEN] the “inhibition (INH)” value was 35%.

What follows are compounds tested on Salmonella typhimurium (assay: Antimutagenic activity in Salmonella Typhimurium […] assessed as inhibition of benzo[a]pyrene-induced mutation at 600 ug/plate after 72 hrs in presence of Ames S-9 fraction).
Format: functional, Salmonella enterica subsp. enterica serovar Typhimurium, T98
In the case of `COc1c2ccoc2cc2oc(=O)ccc12` [BERGAPTEN], the “inhibition (INH)” value is reported as 75%. With `O=c1ccc2ccccc2o1` [COUMARIN] the “inhibition (INH)” value was 53%. `COc1c2occc2cc2ccc(=O)oc12` [METHOXSALEN] was tested, and the “inhibition (INH)” value was 86%. For `COc1ccc2ccc(=O)oc2c1CC=C(C)C` [OSTHOLE], the “inhibition (INH)” value was 54%. `CC(C)=CCOc1c2occc2cc2ccc(=O)oc12` [PENTOSALEN] was tested, and the “inhibition (INH)” value was 90%.

Each compound was assayed on Salmonella typhimurium (assay: Antimutagenic activity in Salmonella Typhimurium […] assessed as inhibition of benzo[a]pyrene-induced mutation at 300 ug/plate after 72 hrs in presence of Ames S-9 fraction).
Format: functional, Salmonella enterica subsp. enterica serovar Typhimurium, T98
For `COc1c2ccoc2cc2oc(=O)ccc12` [BERGAPTEN], the “inhibition (INH)” value was 67%. `O=c1ccc2ccccc2o1` [COUMARIN] was tested, and the “inhibition (INH)” value was 16%. For `COc1c2occc2cc2ccc(=O)oc12` [METHOXSALEN], the “inhibition (INH)” value was 76%. In the case of `COc1ccc2ccc(=O)oc2c1CC=C(C)C` [OSTHOLE], the “inhibition (INH)” value is reported as 49%. For `CC(C)=CCOc1c2occc2cc2ccc(=O)oc12` [PENTOSALEN], the “inhibition (INH)” value was 87%.

These compounds were tested on Salmonella typhimurium (assay: Antimutagenic activity in Salmonella Typhimurium […] assessed as inhibition of benzo[a]pyrene-induced mutation at 150 ug/plate after 72 hrs in presence of Ames S-9 fraction).
Format: functional, Salmonella enterica subsp. enterica serovar Typhimurium, T98
In the case of `COc1c2ccoc2cc2oc(=O)ccc12` [BERGAPTEN], the “inhibition (INH)” value is reported as 61%. For `O=c1ccc2ccccc2o1` [COUMARIN], the “inhibition (INH)” value was 10%. For `COc1c2occc2cc2ccc(=O)oc12` [METHOXSALEN], the “inhibition (INH)” value was 58%. `COc1ccc2ccc(=O)oc2c1CC=C(C)C` [OSTHOLE] was tested, and the “inhibition (INH)” value was 13%. For `CC(C)=CCOc1c2occc2cc2ccc(=O)oc12` [PENTOSALEN], the “inhibition (INH)” value was 86%.

Each compound was assayed on Salmonella typhimurium (assay: Antimutagenic activity in Salmonella Typhimurium […] assessed as inhibition of 2-nitroflorene-induced mutation at 600 ug/plate after 72 hrs).
Format: functional, Salmonella enterica subsp. enterica serovar Typhimurium, T98
In the case of `COc1c2ccoc2cc2oc(=O)ccc12` [BERGAPTEN], the “inhibition (INH)” value is reported as 40%. `O=c1ccc2ccccc2o1` [COUMARIN] was tested, and the “inhibition (INH)” value was 73%. `COc1c2occc2cc2ccc(=O)oc12` [METHOXSALEN] was tested, and the “inhibition (INH)” value was 25%. `COc1ccc2ccc(=O)oc2c1CC=C(C)C` [OSTHOLE] was tested, and the “inhibition (INH)” value was 80%. In the case of `CC(C)=CCOc1c2occc2cc2ccc(=O)oc12` [PENTOSALEN], the “inhibition (INH)” value is reported as 58%.

Each compound was assayed on Salmonella typhimurium (assay: Antimutagenic activity in Salmonella Typhimurium […] assessed as inhibition of 2-nitroflorene-induced mutation at 300 ug/plate after 72 hrs).
Format: functional, Salmonella enterica subsp. enterica serovar Typhimurium, T98
With `COc1c2ccoc2cc2oc(=O)ccc12` [BERGAPTEN] the “inhibition (INH)” value was 41%. `O=c1ccc2ccccc2o1` [COUMARIN] was tested, and the “inhibition (INH)” value was 17%. For `COc1c2occc2cc2ccc(=O)oc12` [METHOXSALEN], the “inhibition (INH)” value was 39%. In the case of `COc1ccc2ccc(=O)oc2c1CC=C(C)C` [OSTHOLE], the “inhibition (INH)” value is reported as 55%. With `CC(C)=CCOc1c2occc2cc2ccc(=O)oc12` [PENTOSALEN] the “inhibition (INH)” value was 43%.

What follows are compounds tested on Salmonella typhimurium (assay: Antimutagenic activity in Salmonella Typhimurium […] assessed as inhibition of 2-nitroflorene-induced mutation at 150 ug/plate after 72 hrs).
Format: functional, Salmonella enterica subsp. enterica serovar Typhimurium, T98
`COc1c2ccoc2cc2oc(=O)ccc12` [BERGAPTEN] was tested, and the “inhibition (INH)” value was 27%. `O=c1ccc2ccccc2o1` [COUMARIN] was tested, and the “inhibition (INH)” value was 24%. With `COc1c2occc2cc2ccc(=O)oc12` [METHOXSALEN] the “inhibition (INH)” value was 5%. In the case of `COc1ccc2ccc(=O)oc2c1CC=C(C)C` [OSTHOLE], the “inhibition (INH)” value is reported as 29%. `CC(C)=CCOc1c2occc2cc2ccc(=O)oc12` [PENTOSALEN] was tested, and the “inhibition (INH)” value was 22%.
